The values below are quoted from earlier work in paper PMC10846240, “Pharmacokinetic/pharmacodynamic integration of amphenmulin: a novel pleuromutilin derivative against Mycoplasma gallisepticum” (Microbiology Spectrum, 2023).

One data set concerns M. gallisepticum. Also on record: method as in PMID 27656647, PMID 25845865. As to conditions: intratracheal infection model; cited from earlier work.
Data set [1] has as its system M. gallisepticum S6 strain. More on the design: method as in PMID 27656647. As to conditions: same strain (S6); cited from earlier work.
The next data set deals with Staphylococcus aureus. Also on record: method as in PMID 30019769. As to conditions: neutropenic murine thigh and lung infection model; cited from earlier work.
Details of data set [2]: method as in PMID 26747098. As to conditions: after intravenous injection; cited from earlier work.
Another data set relates to Streptococcus pneumoniae. More on the design: method as in PMID 30019769. As to conditions: neutropenic murine thigh and lung infection model; cited from earlier work.

≈ marks a conversion by molar mass, not a printed value.

With `C=C[C@]1(C)C[C@@H](OC(=O)CSC(C)(C)CNC(=O)[C@H](N)C(C)C)[C@]2(C)[C@H](C)CC[C@]3(CCC(=O)[C@H]32)[C@@H](C)[C@@H]1O` [valnemulin], in the data set on M. gallisepticum, the optimized therapeutic dosages was 6.5 mg/kg and the “parameter most relevant to anti-mycoplasma effect” value was “AUC/MIC”.
`C=C[C@]1(C)C[C@@H](OC(=O)CSCCN(CC)CC)[C@]2(C)[C@H](C)CC[C@]3(CCC(=O)[C@H]32)[C@@H](C)[C@@H]1O` [tiamulin]: the MIC in data set [1] is 0.03 µg/mL (≈ 0.0608 µM). For the same molecule, in the data set on M. gallisepticum, the optimized therapeutic dosages was 45 mg/kg and the “parameter most relevant to anti-mycoplasma effect” value is on record as “AUC/MIC”.
Consider `C=C[C@]1(C)C[C@@H](OC(=O)CS[C@@H]2CC[C@@H](N)C[C@H]2O)[C@]2(C)[C@H](C)CC[C@]3(CCC(=O)[C@H]32)[C@@H](C)[C@@H]1O` [lefamulin], for which the character of activity result in the data set with Staphylococcus aureus is “time- and concentration-dependent activity”; in the data set with Streptococcus pneumoniae, “time- and concentration-dependent activity”. In data set [2], the “free drug concentration in pulmonary epithelial lining fluid relative to plasma” value was 5.7 times.

In general, MIC refers to the lowest concentration found to suppress growth.
